From US20230416298A1, “PRODRUGS OF NEUROACTIVE STEROIDS” (Brii Biosciences, Inc., priority 2020, published 2023)

Tests used:
[1] = Liver S9 stability; assay type: in vitro ADME; conditions: human liver S9, 37° C.; for half-life at 1 μM: time points up to 60 min; for Stability in Human Liver S9 Formation of parent compound: Yes/No
Method: Intermediate solution: Dilute 5 μL of compounds or controls (7-ethoxycoumarin) from stock solution (10 mM) with 495 μL MeOH (Conc.: 100 μM, 1% DMSO, 99% MeOH). Stop solution: Cold ACN (including 100 ng/mL Tolbutamide and Labetalol as internal standard). Add 2 μL test compound or control working solution/well to all plates (T0, T5, T10, T20, T30, T60, NCF60) except matrix blank. Add 600 μL/well stop solution (cold in 4° C., including 100 ng/mL Tolbutamide/100 ng/mL Labetalol) to terminate the TO plate, then put it on ice. Dispense 840 μL/well S9 solution to 96-well plate as reservoir according to plate map. Then add 100 μL/well to every plate by Apricot. Incubate S9 solution and compound at 37° C. for about 10 min except NCF60 and TO. After adding S9 solution and 98 μ LPB buffer to NCF60, incubate at 37° C. without pre-warming, start timer 1. After 60 min, add 600 μL/well stop solution to terminate the reaction. After pre-warming, dispense 760 μL/well cofactor solution to 96-well plate as reservoir according to plate map. Then add 98 μL/well to every plate by Apricot to start reaction. Incubate at 37° C., start timer 2, Add 600 μL/well stop solution (cold in 4° C., including 100 ng/mL Tolbutamide and Labetalol) to terminate the reaction. Samples are centrifuged at 4000 rpm for 20 min. While centrifuging, load 8×new 96-well plate with 300 μL HPLC water, then transfer 100 μL supernatant, mix with water for LC/MS/MS, transferred to Bioanalytical Services for LC-MS/MS analysis. Use equation of first order kinetics to calculate t1/2 and CL: Equation of first order kinetics: […]

[2] = Plasma stability; assay type: in vitro ADME; conditions: 37° C.; for Stability in Human Plasma Formation of parent compound: 2 μM, Yes/No; for half-life at 2 μM: pooled plasma, pH 7.4, human plasma, time points 0, 10, 30, 60 and 120 min
Method: The pooled frozen plasma was thawed in a water bath at 37° C. prior to experiment. Plasma was centrifuged at 4000 rpm for 5 min and the clots were removed if any. The pH will be adjusted to 7.4±0.1 if required.
Preparation of test compounds and positive control (propantheline bromide): 1 mM intermediate solution was prepared by diluting 10 μL of the stock solution with 90 μL MeOH; 1 mM intermediate of positive control Propantheline was prepared by diluting 10 μL of the stock solution with 90 μL ultrapure water. 100 μM dosing solution was prepared by diluting 20 μL of the intermediate solution (1 mM) with 180 μL MeOH. 98 μL of blank plasma was spiked with 2 μL of dosing solution (100 μM) to achieve 2 μM of the final concentration in duplicate and samples were incubated at 37° C. in a water bath. At each time point (0,10, 30, 60 and 120 min), 400 μL of stop solution (0.1% FA in MeOH containing 200 ng/mL tolbutamide and 200 ng/mL Labetalol) was added to precipitate protein and mixed thoroughly. Centrifuged sample plates at 4,000 rpm for 10 min. An aliquot of supernatant (100 μL) was transferred from each well to another plates.
Data analysis: The % remaining of test compound after incubation in plasma was calculated using following equation:
% Remaining=[…]×(PAR at appointed incubation time/PAR at T0 time)
where PAR is the peak area ratio of analyte versus internal standard (IS) (LC/MS/MS mobile phase condition: 0.1% Formic Acid in Water/0.1% Formic Acid in Acetonitrile. The appointed incubation time points are TO (0 min), Tn (n=0, 10, 30, 60, 120 min).

For `CC(=O)[C@H]1CC[C@H]2[C@@H]3CC[C@H]4C[C@H](OC(=O)OCCN(C)C(=O)C(C)C)CC[C@]4(C)[C@H]3CC[C@]12C` [Example 25, (3R,5S,8R,9S,10S,13S,14S,17S)-17-acetyl-10,13-dimethylhexadecahydro-1H-cycl penta[a]phenanthren-3-yl(2-(N-methylisobutyramido)ethyl) carbonate], the half-life at 1 μM [1] was < 0.833 h, the “Stability in Human Liver S9 Formation of parent compound” value [1] was “No” and the “Stability in Human Plasma Formation of parent compound” value [2] was “No”. For the same molecule, the half-life at 2 μM [2] was > 3.33 h.
With `COC(=O)N(C)CCOC(=O)O[C@@H]1CC[C@@]2(C)[C@@H](CC[C@@H]3[C@@H]2CC[C@]2(C)[C@@H](C(C)=O)CC[C@@H]32)C1` [Example 27, [(3R,5S,8R,9S,10S,13S,14S,17S)-17-acetyl-10,13-dimethyl-2,3,4,5,6,7,8,9,11,12,14,15,16,17-tetradecahydro-1H-cyclopenta[a]phenanthren-3-yl]2-(methoxycarbonyl-N-methylamino)ethyl carbonate] the half-life at 1 μM [1] was < 0.833 h, the “Stability in Human Liver S9 Formation of parent compound” value [1] was “Yes” and the “Stability in Human Plasma Formation of parent compound” value [2] was “No”. For the same molecule, the half-life at 2 μM [2] was > 3.33 h.
